“And” between values parts separate entries of the source, which are not always exact repeats. Equal values may be shown once.
Experiments:
Assay type in all cases: toxicity, cell-based
Fibroblast = assay: Incucyte cell viability with human fibroblast; conditions: 10 µM, compound concentration 10 uM
U2OS = assay: Incucyte cell viability with U2OS; conditions: human, 10 µM, compound concentration 10 uM
HEK-293T = assay: Incucyte cell viability with HEK293T; conditions: human, 10 µM, compound concentration 10 uM
Also: unitless GR value; below 1 slowed growth and below 0 cell loss.

Structure (SMILES) | Growth Rate (Fibroblast; 6 h, replicate number 1) | Growth Rate (Fibroblast; 6 h, replicate number 2) | Growth Rate (Fibroblast; 12 h, replicate number 2) | Growth Rate (Fibroblast; 18 h, replicate number 1) | Growth Rate (Fibroblast; 18 h, replicate number 2) | Growth Rate (Fibroblast; 24 h, replicate number 1) | Growth Rate (Fibroblast; 24 h, replicate number 2) | Growth Rate (U2OS; 18 h, replicate number 2) | Growth Rate (U2OS; 24 h, replicate number 1) | Growth Rate (HEK-293T; 6 h, replicate number 1) | Growth Rate (HEK-293T; 12 h, replicate number 1) | Growth Rate (HEK-293T; 18 h, replicate number 1) | Growth Rate (HEK-293T; 18 h, replicate number 2) | Growth Rate (HEK-293T; 24 h, replicate number 1) | Growth Rate (U2OS; 0 h, replicate number 1) | Growth Rate (HEK-293T; 6 h, replicate number 2) | Growth Rate (HEK-293T; 12 h, replicate number 2) | Growth Rate (U2OS; 12 h, replicate number 1) | Growth Rate (U2OS; 24 h, replicate number 2) | Growth Rate (HEK-293T; 24 h, replicate number 2) | other results
C=C(C)[C@H]1CN[C@H](C(=O)O)[C@H]1CC(=O)O [KAINIC ACID] | 0.61 | 0.16 | 0.83 | 0.63 | 0.79 | 0.76 | 0.8 | 0.9 | 0.98 | 0.6 | 0.52 | 0.62 | 0.99 | 0.8 |  |  |  |  |  |  | Growth Rate (Fibroblast; 0 h, replicate number 1): -0.12; Growth Rate (Fibroblast; 0 h, replicate number 2): 0.92; Growth Rate (U2OS; 0 h, replicate number 2): -0.65; Growth Rate (U2OS; 6 h, replicate number 1): 0.42
Cc1cc2ncnn2cc1Nc1ncc2c(n1)n(C1CCOCC1)c(=O)n2C [AZD-7648] |  |  |  |  | 0.83 |  | 0.93 |  | 0.9 | 0.34 | 0.78 | 0.87 | 0.95 | 0.93 | 0.4 | 0.98 | 0.76 |  |  |  | Growth Rate (Fibroblast; 0 h, replicate number 2): 0.27
COc1cc2nc(-c3cc(F)ccc3O)nc(N[C@@H]3CNC[C@H]3C(C)(C)O)c2cc1OC.Cl.Cl | -0.98 | -1 |  | 0.18 |  | 0.06 |  | -0.37 and -0.32 | -0.35 and -0.37 | -0.41 and -0.9 | -0.39 and -0.88 | -0.28 and -0.69 | -0.42 and -0.53 | -0.23 and -0.61 | -0.66 | -0.53 | -0.5 and -0.73 | -0.39 and -0.54 | -0.34 and -0.27 | -0.33 and -0.39 | Growth Rate (Fibroblast; 0 h, replicate number 1): -1; Growth Rate (Fibroblast; 0 h, replicate number 2): 0.21; Growth Rate (U2OS; 12 h, replicate number 2): -0.46 and -0.33; Growth Rate (U2OS; 18 h, replicate number 1): -0.4 and -0.47
CCOc1ccc(S(=O)(=O)Nc2ccc(Cl)cc2C#Cc2cnc(C(=O)[O-])cc2OC)c2ncccc12.[K+] |  | 0.49 | 0.49 | 1 | 0.43 | 0.99 | 0.53 | -0.85 |  |  |  |  | 0.87 | 0.98 | -0.87 | 0.66 | 0.97 | 0.95 | 0.81 | 0.87 | Growth Rate (Fibroblast; 0 h, replicate number 1): -0.78; Growth Rate (U2OS; 0 h, replicate number 2): 0.5; Growth Rate (U2OS; 6 h, replicate number 2): 0.58; Growth Rate (U2OS; 12 h, replicate number 2): -0.91; Growth Rate (U2OS; 18 h, replicate number 1): 0.94; Growth Rate (HEK-293T; 0 h, replicate number 1): 0.28; Growth Rate (HEK-293T; 0 h, replicate number 2): -0.2
Cl.Cl.Fc1ccc([C@@H]2CCNC[C@H]2COc2ccc3c(c2)OCO3)cc1.Fc1ccc([C@@H]2CCNC[C@H]2COc2ccc3c(c2)OCO3)cc1.O [PAROXETINE HYDROCHLORIDE] | -0.26 | -1 | 0.54 |  | 0.59 |  | 0.62 | 0.89 |  | 0.25 |  |  |  |  |  |  |  |  | 0.98 | 0.86 | Growth Rate (Fibroblast; 12 h, replicate number 1): -1; Growth Rate (U2OS; 0 h, replicate number 2): -1; Growth Rate (U2OS; 6 h, replicate number 1): 0.82; Growth Rate (U2OS; 6 h, replicate number 2): 0.89; Growth Rate (U2OS; 12 h, replicate number 2): 0.84
N[C@@H]1CCCN(c2c(/C=C3\SC(=O)NC3=O)cccc2-c2ccccc2)C1 |  | 0.19 | 0.34 | 0.83 | 0.55 | 1 | 0.53 |  |  |  |  | 0.8 | 0.84 | 0.92 | -0.41 | 0.84 | 0.79 | 0.97 |  | 0.97 | Growth Rate (Fibroblast; 12 h, replicate number 1): 0.71; Growth Rate (HEK-293T; 0 h, replicate number 2): -0.99
Fc1cccc(-n2cnc3c(NCc4nc5ccc(F)c(F)c5[nH]4)nc(N4CCOCC4)nc32)c1 | -0.08 | -0.22 | -0.11 | 0.04 | -0.03 | -0.01 | 0.03 | 0.61 | -0.23 | -0.14 | -0.36 | -0.28 | -0.31 | -0.21 |  | -0.21 |  | 0.06 | 0.38 | -0.25 | Growth Rate (Fibroblast; 12 h, replicate number 1): 0.02; Growth Rate (U2OS; 6 h, replicate number 1): 0.56; Growth Rate (U2OS; 18 h, replicate number 1): -0.23; Growth Rate (HEK-293T; 0 h, replicate number 1): -0.62
CC(C)(C)c1cnc(CSc2cnc(NC(=O)C3CCN(CC(=O)NCCOCCOCCOCCNc4cccc5c4C(=O)N(C4CCC(=O)NC4=O)C5=O)CC3)s2)o1 (stereo not given) | 0.1 | 0.11 | -0.09 | -0.02 | -0.15 | 0.11 | -0.12 | -0.02 | -0.05 | -0.56 | -0.47 | -0.38 | -0.5 | -0.29 |  | -0.74 | -0.62 | 0.31 | -0.04 | -0.39 | Growth Rate (Fibroblast; 0 h, replicate number 1): -0.99; Growth Rate (Fibroblast; 12 h, replicate number 1): -0.04; Growth Rate (U2OS; 0 h, replicate number 2): 0.98; Growth Rate (U2OS; 6 h, replicate number 1): 0.29; Growth Rate (U2OS; 6 h, replicate number 2): 0.25; Growth Rate (U2OS; 12 h, replicate number 2): 0.19; Growth Rate (U2OS; 18 h, replicate number 1): 0.16
CC(C)(C)c1cnc(CSc2cnc(NC(=O)C3CCNCC3)s2)o1 [BMS-387032] | 0.49 | -0.1 | -0.28 | 0.32 | -0.23 | 0.23 | -0.26 | 0.04 | 0.05 | -0.41 | -0.29 | -0.21 | -0.48 | -0.2 | -1 | -0.76 | -0.64 | 0.45 | -0.1 | -0.37 | Growth Rate (Fibroblast; 0 h, replicate number 1): -1; Growth Rate (Fibroblast; 0 h, replicate number 2): -0.8; Growth Rate (Fibroblast; 12 h, replicate number 1): 0.11; Growth Rate (U2OS; 0 h, replicate number 2): 0.54; Growth Rate (U2OS; 6 h, replicate number 1): 0.69; Growth Rate (U2OS; 6 h, replicate number 2): 0.29; Growth Rate (U2OS; 12 h, replicate number 2): 0.05; Growth Rate (U2OS; 18 h, replicate number 1): 0.27
CC(C(=O)Nc1cc(C#N)ccc1CCCC(=O)O)c1ccc(F)c2ccccc12 (stereo not given) |  |  |  |  |  |  | 0.93 |  | 0.78 |  |  |  |  |  | 0 |  |  | 0.72 |  |  | Growth Rate (Fibroblast; 0 h, replicate number 2): -0.98; Growth Rate (U2OS; 6 h, replicate number 1): 0.47; Growth Rate (U2OS; 18 h, replicate number 1): 0.92; Growth Rate (HEK-293T; 0 h, replicate number 1): 0.5; Growth Rate (HEK-293T; 0 h, replicate number 2): 0.28
Cl.O=C1c2cccc3c2[C@H](CCC3)CN1[C@@H]1CN2CCC1CC2 [PALONOSETRON HYDROCHLORIDE] | -0.99 |  |  |  |  |  | 0.92 |  | 0.92 | 0.51 | 0.41 | 0.55 | 0.08 | 0.34 | -0.52 | -0.08 | 0.03 |  | 0.98 | 0.19 | Growth Rate (Fibroblast; 0 h, replicate number 2): 0.54; Growth Rate (U2OS; 0 h, replicate number 2): -0.79; Growth Rate (HEK-293T; 0 h, replicate number 1): 0.61
Cc1c(N2CCCC2)nc2ccc(Br)cc2c1C(=O)NC[C@H](CCC(=O)O)c1ccccc1Cl [BAY-6672] | 0.13 |  |  | 0.97 | 0.93 |  | 0.89 | 0.9 | 0.98 |  |  |  | 0.38 |  | 0.89 |  | 0.76 | 0.88 | 0.79 | 0.44 | Growth Rate (Fibroblast; 12 h, replicate number 1): 0.91; Growth Rate (U2OS; 0 h, replicate number 2): 0.47; Growth Rate (U2OS; 6 h, replicate number 1): 0.7; Growth Rate (U2OS; 6 h, replicate number 2): 0.83; Growth Rate (U2OS; 12 h, replicate number 2): 0.83; Growth Rate (U2OS; 18 h, replicate number 1): 0.67; Growth Rate (HEK-293T; 0 h, replicate number 1): -0.43
O=C(Cc1ccccc1[N+](=O)[O-])Nc1ccc(-c2ccc(C(O)(C(F)(F)F)C(F)(F)F)cc2F)cc1 | -0.02 | -0.05 | 0.28 | 0.13 | -0.04 | -0.02 | -0.14 | 0.73 |  | 0.35 | 0.73 | 0.7 | 0.6 | 0.78 |  | 0.13 | 0.64 |  | 0.66 | 0.74 | Growth Rate (Fibroblast; 12 h, replicate number 1): 0.45; Growth Rate (U2OS; 6 h, replicate number 2): 0.87; Growth Rate (U2OS; 12 h, replicate number 2): 0.85; Growth Rate (HEK-293T; 0 h, replicate number 1): 0.09; Growth Rate (HEK-293T; 0 h, replicate number 2): -0.97

Reference: ChEMBL document CHEMBL5303304, “EUbOPEN Chemogenomics Library - IncuCyte” (2023)
